Drawing on ChEMBL document CHEMBL4715755, “Isothiouronium modification empowers pyrimidine-substituted curcumin analogs potent cytotoxicity and Golgi localization” (Eur J Med Chem, 2016), this text covers IC50 for 16 molecules.

SMILES strings stand for the structures.

What all share (assay type): functional
Experiment [1] deals with HT-29. Description: Cytotoxicity against human HT-29 cells assessed as reduction in cell viability incubated for 48 hrs by resazurin reagent based fluorescence assay. The conditions noted are these: HT-29, 48 h. On the technique in general: Resazurin is reduced to fluorescent resorufin, in cell work by metabolically active cells.
In experiment [2] the test system is HCT-116. Put plainly: Cytotoxicity against human HCT-116 cells assessed as reduction in cell viability incubated for 48 hrs by resazurin reagent based fluorescence assay. Conditions: HCT-116, 48 h.
Experiment [3] has as its system NCI-H1299. Put plainly: Cytotoxicity against human NCI-H1299 cells assessed as reduction in cell viability incubated for 48 hrs by resazurin reagent based fluorescence assay. The conditions noted are these: NCI-H1299, 48 h.
For experiment [4], the system named is A549. Put plainly: Cytotoxicity against human A549 cells assessed as reduction in cell viability incubated for 48 hrs by resazurin reagent based fluorescence assay. Conditions: A549, 48 h.

Regarding `N=C(N)SCCCCCCOc1nc(/C=C/c2ccccc2)cc(/C=C/c2ccccc2)n1`, the concentration for half-maximal inhibition (IC50) (commonly the concentration at which inhibition is half-maximal) was found to be 2.89 µM in experiment [1], 2.3 µM in experiment [2], 6.4 µM in experiment [3] and 3.98 µM in experiment [4].

Turning to `BrCCCCCCOc1nc(/C=C/c2ccccc2)cc(/C=C/c2ccccc2)n1`, the IC50 in experiment [1], in experiment [2], in experiment [3] and in experiment [4] was > 20 µM in each case.

Turning to `COc1ccc(/C=C/c2cc(/C=C/c3ccc(OC)cc3)nc(OCCCCCBr)n2)cc1`, the IC50 in experiment [1], in experiment [2], in experiment [3] and in experiment [4] was > 20 µM in each case.

On to `COc1ccc(/C=C/c2cc(/C=C/c3ccc(OC)c(OC)c3)nc(OCCCCCSC(=N)N)n2)cc1OC`, for which the IC50 was 1.91 µM in experiment [1], 1.81 µM in experiment [2], 4.04 µM in experiment [3] and 1.99 µM in experiment [4].

In the case of `COc1cc(/C=C/c2cc(/C=C/c3cc(OC)c(OC)c(OC)c3)nc(OCCCCSC(N(C)C)=[N+](C)C)n2)cc(OC)c1OC`, the 50% inhibitory concentration (IC50) is 10.5 µM in experiment [1], 5.41 µM in experiment [2], 15 µM in experiment [3] and 14.4 µM in experiment [4].

As to `N=C(N)SCCCCOc1nc(/C=C/c2ccccc2)cc(/C=C/c2ccccc2)n1`, the IC50 in experiment [1] is 1.75 µM; in experiment [2], 1.87 µM; in experiment [3], 4.51 µM; in experiment [4] it was 4.57 µM.

Regarding `COc1ccc(/C=C/c2cc(/C=C/c3ccc(OC)c(OC)c3)nc(OCCCCCCBr)n2)cc1OC`, the IC50 in experiment [1], in experiment [2], in experiment [3] and in experiment [4] was > 20 µM each time.

As to `BrCCCCOc1nc(/C=C/c2ccccc2)cc(/C=C/c2ccccc2)n1`, the IC50 in experiment [1], in experiment [2], in experiment [3] and in experiment [4] was > 20 µM in each case.

On to `COc1cc(/C=C/c2cc(/C=C/c3cc(OC)c(OC)c(OC)c3)nc(OCCCCCCSC(=N)N)n2)cc(OC)c1OC`, for which the 50% inhibitory concentration (IC50) was determined as 1.17 µM in experiment [1], 1.87 µM in experiment [2], 3.09 µM in experiment [3] and 2 µM in experiment [4].

On to `COc1ccc(/C=C/c2cc(/C=C/c3ccc(OC)c(OC)c3)nc(OCCCCCCSC(=N)N)n2)cc1OC`, for which the IC50 in experiment [1] turned out to be 1.72 µM; in experiment [2], 2.02 µM; in experiment [3] it was 3.75 µM; in experiment [4], 2.09 µM.

On to `COc1cc(/C=C/c2cc(/C=C/c3cc(OC)c(OC)c(OC)c3)nc(OCCCCBr)n2)cc(OC)c1OC`, for which the half-inhibitory concentration (IC50) in experiment [1], in experiment [2], in experiment [3] and in experiment [4] was > 20 µM each time.

With `COc1cc(/C=C/c2cc(/C=C/c3cc(OC)c(OC)c(OC)c3)nc(OCCCCSC(=N)N)n2)cc(OC)c1OC`, the half-maximal inhibitory concentration (IC50) in experiment [1] was determined as 2.19 µM; in experiment [2], 3.77 µM; in experiment [3], 5.1 µM; in experiment [4], 4.24 µM.

In the case of `BrCCCCCOc1nc(/C=C/c2ccccc2)cc(/C=C/c2ccccc2)n1`, the IC50 in experiment [1], in experiment [2], in experiment [3] and in experiment [4] was > 20 µM in each case.

For the molecule `COc1ccc(/C=C/c2cc(/C=C/c3ccc(OC)c(OC)c3)nc(OCCCCCBr)n2)cc1OC`, the IC50 in experiment [1], in experiment [2], in experiment [3] and in experiment [4] was > 20 µM in each case.

For `COc1cc(/C=C/c2cc(/C=C/c3cc(OC)c(OC)c(OC)c3)nc(OCCCCCBr)n2)cc(OC)c1OC`, the half-inhibitory concentration (IC50) in experiment [1], in experiment [2], in experiment [3] and in experiment [4] was > 20 µM throughout.

With `N=C(N)SCCCCCOc1nc(/C=C/c2ccccc2)cc(/C=C/c2ccccc2)n1`, the IC50 in experiment [1] stood at 2.82 µM; in experiment [2], 2.39 µM; in experiment [3], 7.09 µM; in experiment [4], 4.11 µM.
